Experimental data published in ChEMBL document CHEMBL4819128, “Discovery of indoline derivatives as anticancer agents via inhibition of tubulin polymerization” (Bioorg Med Chem Lett, 2021).
Active and inactive are the calls of the source. The rule behind the calls is not given here.

What was measured:
Tubulin (Homo sapiens) [1] = biological target: T1, Tubulin (Homo sapiens) (UniProt P68371+Q9H4B7+P0DPH7+P68366+Q13509+Q71U36+P04350+Q3ZCM7+P07437+P68363+Q9BQE3+Q6PEY2+Q13885+Q9BVA1+Q9BUF5); assay: Inhibition of tubulin polymerization in human KYSE-30 cells at 1.25 uM by immunofluorescence assay; type: cell-based
Tubulin (Homo sapiens) [2] = biological target: T1, Tubulin (Homo sapiens); assay: Inhibition of tubulin polymerization in human KYSE-30 cells by immunofluorescence assay; type: cell-based
[3] = biological target: Tubulin beta (Homo sapiens) (UniProt P68371+Q9H4B7+Q13509+P04350+Q3ZCM7+P07437+Q13885+Q9BVA1+Q9BUF5+A6NNZ2); assay: Binding affinity to beta-tubulin colchicine binding site in human KYSE-30 cells assessed as inhibition of tubulin-EBI adduct formation by EBI addition by Western blotting analysis; type: cell-based
Tubulin (Homo sapiens) [4] = biological target: T1, Tubulin (Homo sapiens); assay: Inhibition of tubulin polymerization in human KYSE-30 cells assessed as reduction in cell viability; type: cell-based
Tubulin (Homo sapiens) [5] = biological target: T1, Tubulin (Homo sapiens); assay: Inhibition of tubulin polymerization in human KYSE-450 cells assessed as reduction in cell viability upto 48 hrs; type: cell-based; conditions: time hrs <=48, TDE = time-dependent effect
Tubulin (Homo sapiens) [6] = biological target: T1, Tubulin (Homo sapiens); assay: […] of tubulin polymerization in human KYSE-450 cells assessed as inhibition of cell growth after 48 hrs relative to control; type: cell-based
KYSE-450 [7] = assay: Induction of cell morphological changes in human KYSE-450 cells measured after 48 hrs; type: functional, cell-based
KYSE-450 [8] = assay: Inhibition of colony formation in human KYSE-450 cells at 0.188 to 0.313 uM after 7 days by crystal violet staining based assay; type: functional, cell-based; conditions: dose 0.188-0.313 µM, time 7.0 day
MGC-803 = assay: Antiproliferative activity against human MGC-803 cells incubated for 48 hrs by CCK8 assay; type: functional, cell-based; conditions: MGC-803, 48 h

SMILES: COc1cc(C(=O)N2CCc3cc(Br)ccc32)cc(OC)c1OC
- inhibition (Tubulin (Homo sapiens) [1]): Active
- inhibition (Tubulin (Homo sapiens) [2]): Dose-Dependent Effect
- Activity [3]: Active
- inhibition (Tubulin (Homo sapiens) [4]): Dose-Dependent Effect
- inhibition (Tubulin (Homo sapiens) [5]): Tde
- Activity (Tubulin (Homo sapiens) [6]): Dose-Dependent Effect
- Activity (KYSE-450 [7]): Active
- inhibition (KYSE-450 [8]): Active

SMILES: O=C(Cc1ccccc1)N1CCc2cc(Br)ccc21
- IC50 (MGC-803): 32.8 µM
